# Measured values: US8410163B2, “Substituted 4-amino-5-benzoyl-2-(phenylamino)thiophene-3-carbonitriles and substituted 4-amino-5-benzoyl-2-(phenylamino)thiophene-3-carboxamides as tubulin polymerization inhibitors” (Telik, Inc., priority 2009, dated 2013)
# Like-named read-outs stand apart in the source and are kept apart here.
# Experiments:
# [1] = tested on: A549 (human lung adenocarcinoma); assay: Cytotoxicity assay (CellTiter-Glo), A549; assay type: cell-based; settings: 72 h, A549 cells, three days culture, rounded to 1 significant figure
# Protocol: (§1) The cell lines A549 (human lung adenocarcinoma), OVCAR-3 (human ovarian carcinoma), HL60 (human promyelocytic leukemia), DLD1 (human colon adenocarcinoma) and HCT116 (human colon carcinoma) were obtained from the American Type Culture Collection, Manassas, Va., U.S.A. All products were used in accordance with manufacturer's directions. The histone phosphorylation (p-H3) assay was conducted in duplicate and the cytotoxicity assays were conducted in triplicate, in each case with solvent control.
# (§2) Log-phase cells were trypsinized, collected by centrifugation, and resuspended in a small volume of fresh medium, and the density of viable cells was determined following Trypan Blue staining. Cells were diluted in fresh media, the test compounds (concentrations between 0.1 μM and 200 μM, dissolved in DMSO, 50 μL) added immediately after dilution to achieve a final DMSO concentration of 0.5%, then the suspensions added at 150 μL/well to 96-well plates, and incubated overnight to allow attachment in the case of adherent cells. The cells were cultured for three days (about three doubling times). The cells were then collected by centrifugation, and 100 μL of the culture supernatant was replaced by the CellTiter-Glo reagent. After incubation for 15 minutes at room temperature, the plate was read with a luminometer. […] The table gives cytotoxicity IC50s in μM, rounded to 1 significant figure.
# [2] = tested on: HL60 (human promyelocytic leukemia) xenograft; assay: HL60 xenograft assay, oral administration; assay type: in vivo; settings: Mus musculus, HL-60, po, nu/nu mice, read-out: inhibition of tumor growth compared to vehicle
# Protocol: (§3) Male athymic nu/nu mice, 6-8 weeks old (about 20 g), were implanted subcutaneously in the right fore flank with about 1×10^7 cells of the HL60 (human promyelocytic leukemia) line that had been grown in antibiotic-free medium for at least two passages. About 6 days after tumor implantation, when the tumor weight was about 50-250 mg, the mice were assigned to treatment groups. Test compounds were suspended at 20 mg/mL in 0.55 wt. % aqueous carboxymethylcellulose. Groups of mice were treated with compounds 2A, 9A, and 12A at 200 mg/Kg by gavage once/day on days 1-5 and 8-10 from the start of treatment, with vehicle control. Tumor growth inhibition was measured on the last day of treatment.
# The experiment was conducted generally as described in In vivo Example 1. Groups of mice were treated with compounds 5A, 6A, 7A, 8A, and 10A at 200 mg/Kg by gavage once/day on days 1-5 and 8-10 from the start of treatment, with vehicle control. Tumor growth inhibition was measured the day after the last day of treatment.
# [3] = tested on: OVCAR-3 (human ovarian carcinoma); assay: Cytotoxicity assay (CellTiter-Glo), OVCAR-3; assay type: cell-based; settings: 72 h, OVCAR-3 cells, three days culture, rounded to 1 significant figure
# Protocol: as §1, §2
# tubulin = assay: Inhibition of tubulin polymerization, cell-free fluorescence assay; assay type: biochemical
# p-H3 in A549 cells = assay: Histone phosphorylation (p-H3) assay; assay type: cell-based; settings: Homo sapiens, 4 hr incubation, dot-blot
# Protocol: as §1
# Log phase A549 cells were seeded in a 96-well plate and allowed to attach overnight. The test compounds were diluted in DMSO (8 concentrations with serial 3-fold dilutions) and added to the cells (0.5% DMSO final concentration), and the cells incubated for 4 hr. The cells were then washed three times with cold phosphate-buffered saline (PBS), and lysis buffer was added. After 30 min shaking at 4° C. and centrifugation, the supernatants were transferred to a nitrocellulose membrane by a “dot-blot” apparatus. After washing the wells, the membrane was processed for Western blot. Detection of p-H3 and β-actin was performed on the same membrane with primary rabbit anti-p-H3 and mouse anti-β-actin antibodies followed by secondary goat anti-rabbit IRDye800 and goat anti-mouse AlexaFluor 680 antibodies. The membranes were scanned on an Odyssey scanner.
# [4] = tested on: DLD1 (human colon adenocarcinoma); assay: Cytotoxicity assay (CellTiter-Glo), DLD1; assay type: cell-based; settings: DLD-1, 72 h, DLD1 cells, three days culture, rounded to 1 significant figure
# Protocol: as §1, §2
# [5] = tested on: HCT116 (human colon carcinoma) xenograft; assay: HCT116 xenograft assay, oral administration; assay type: in vivo; settings: nu/nu mice, 200 mg/Kg by gavage once/day days 1-5 and 8-12, measured 2 days after the last day of treatment
# Protocol: as §3, with “the HCT116” for “the HL60”, “(human colon carcinoma)” for “(human promyelocytic leukemia)”, “About 14-21” for “About 6”, “tumor transplantation,” for “tumor implantation,”, “and 8-12” for “and 8-10”, “measured 2 days after” for “measured on”
# [6] = tested on: HL60 (human promyelocytic leukemia); assay: Cytotoxicity assay (CellTiter-Glo), HL-60; assay type: cell-based; settings: 72 h, HL-60 cells, three days culture, rounded to 1 significant figure
# Protocol: as §1, §2
# [7] = tested on: HCT116 (human colon carcinoma); assay: Cytotoxicity assay (CellTiter-Glo), HCT116; assay type: cell-based; settings: HCT-116, 72 h, HCT116 cells, three days culture, rounded to 1 significant figure
# Protocol: as §1, §2
# [8] = tested on: tubulin polymerization in A549 cells; assay: Inhibition of tubulin polymerization in A549 cells by immunomicroscopy and cell fractionation; assay type: cell-based, human
SMILES,IC50 [1],"inhibition in vivo at 200 mg/kg ([2]; 200 mg/Kg by gavage once/day days 1-5 and 8-10, measured on the last day of treatment (In vivo Example 1))",IC50 [3],inhibition of tubulin polymerization (cell-free) (tubulin),IC50 (p-H3 in A549 cells),IC50 [4],inhibition of tumor growth compared to vehicle [5],IC50 [6],IC50 [7],activity in tubulin polymerization assay in A549 cells [8],"IC50 ([8]; read-out: IC50, inhibition of tubulin polymerization in A549 cells)","inhibition in vivo at 200 mg/kg ([2]; 200 mg/Kg by gavage once/day days 1-5 and 8-10, measured the day after the last day of treatment (In vivo Example 3))"
COc1ccc(Nc2sc(C(=O)c3ccc(Cl)cc3)c(N)c2C#N)cc1 [Compound 2A],10 nM,46%,20 nM,inhibition of tubulin polymerization,20 nM,6 nM,35%,10 nM,10 nM,,,
N#Cc1ccc(Nc2sc(C(=O)c3ccc(Cl)cc3)c(N)c2C#N)cc1 [Compound 40A],2000 nM,,,,,,,,,inactive,,
"CCc1ccc(Nc2sc(C(=O)c3ccc(Cl)cc3)c(N)c2C#N)cc1 [Compound 15A, 4-amino-5-(4-chlorobenzoyl)-2-[(4-ethylphenyl)amino]thiophene-3-carbonitrile]",100 nM,,,,500 nM,,,90 nM,,,,
"COc1ccc(Nc2sc(C(=O)c3ccc(OC)cc3OC)c(N)c2C#N)cc1 [Compound 7A, 4-amino-5-(2,4-dimethoxybenzoyl)-2-[(4-methoxyphenyl)amino]thiophene-3-carbonitrile]",30 nM,,,,,,,20 nM,10 nM,,9 nM,45%
